In patent US5358959A, “Methods for treating arteriosclerosis” (President and Fellows of Harvard University, priority 1993, dated 1994):
Like-named read-outs stand apart in the source and are kept apart here.

What was measured:
[1] = tested on: Bovine endothelial (BAEC); assay: Cell growth (flask surface covered by the cell monolayer), bovine endothelial cells; assay type: cell-based; conditions: CLT 10 μM; 48 hs; DME 10% calf serum; control 90±2%
Procedure: (§1) Measurement of cell density in culture plates: Cells of a specific test cell line are seeded at precisely the same low density in culture plates and incubated for approximately 12 hours in DME 10% serum, or other culture medium depending on the cell line tested. […] Alternatively, the cells can be detached from the plate by incubation with trypsin (Sigma, Co.) […] in ethylene diaminotetraacetic acid (ECTA; Sigma, Co); then the cells are counted in an hemocytometer chamber (Fisher, Pittsburgh, Pa.).
(§2) After 48 hs cell growth was assessed by optic miscroscopy calculating the surface of the culture flask covered by the cell monolayer.

[2] = tested on: Swiss 3T3 cells; assay: DNA synthesis ([3H]thymidine incorporation) in normal fibroblasts; assay type: cell-based, murine
Procedure: (§3) DNA synthesis assessed by the uptake of [3H]thymidine: Cells are grown in either 48 or 96 wells plates (Costar, Cambridge, Mass.) at 10^4 and 0.8 10^3 cells per well, respectively, and grown in Dubelcco's modified Eagle's medium (DME, Gibco, Grand Island, N.Y.) supplemented with 10% heat-inactivated calf serum; they are kept at 37° C. in 5% CO2. When they reach confluence, usually between 3 and 4 days, the medium is replaced with DME 0.5% serum to make them quiescent, and mitogenesis assays are performed 24 hours later.
(§4) Quiescent cells are exposed to a mitogenic stimulus, such as 10% serum, PDGF (Sigma Co. St. Louis, Mo.), bFGF (Upstate Biotechnologies, Lake Placid, N.Y.), or other appropriate mitogen according to the cell line, and 3 hours 1 later μCi/ml of [3H]thymidine (Dupont, Billerica, Mass.) is added to the wells, and the cells maintained at 37° C./5% CO2 for additional 21 hours. Then the cells are washed 3 times with DME medium and the acid-precipitable radioactivity is extracted with cold 10% TCA (Sigma, Co). After neutralization with 0.3N NaOH (Sigma Co.), aliquots are counted in a Packard Tri-Carb Scintillation counter (Packard Instrument, Downer's Grove, Ill.).
Swiss 3T3 cells (murine fibroblast cell line): Quiescent cells were stimulated with purified growth factors (PDGF and bFGF, […]) and synthesis of DNA was assessed by the incorporation of [3H]thymidine measured 24 hours later.

[3] = tested on: Rat vascular smooth muscle cells; assay: cells; assay type: cell-based; conditions: for inhibition of DNA synthesis by other inhibitors of the Ca++ activated K channel: bFGF-stimulated
Procedure: as §3, §4
Rat vascular smooth muscle cells (murine cell line): Quiescent cells were stimulated with purified growth factors (PDGF and bFGF, […]) and synthesis of DNA was assessed by the incorporation of [3H]thymidine measured 24 hours later.
Cells were stimulated using […] bFGF. […] (FIG. 2)
Other antimycotics were tested for their inhibition of bFGF-stimulated DNA synthesis in rat vascular smooth muscle cells.

[4] = tested on: vascular smooth muscle cells; assay: Proliferative response of vascular smooth muscle cells to conditioned media of MAC treated endothelial cells; assay type: cell-based; conditions: 10 μM CLT; FIG. 5
Procedure: (§5) When endothelial cells (EC) in culture (both BAEC and HUVEC) are treated with terminal complement components to form the MAC (membrane attack complex of complement), they release into the culture medium a potent mitogenic activity that stimulates the proliferation of quiescent cells used as indicators of the mitogens. Both, quiescent Swiss 3T3 and vascular smooth muscle cells are stimulated by the mitogens released form EC in response to the MAC (FIG. 5; Halperin et al. unpublished observation). Moreover, immunoprecipitation with specific antibodies has documented that both PDGF and bFGF released from the EC contribute in approximately equal proportion to the mitogenic activity induced by the MAC (data not shown).

[5] = tested on: human umbilical vein (HUVEC); assay: Cell growth (flask surface covered by the cell monolayer), human umbilical vein cells; assay type: cell-based; conditions: CLT 10 μM; 48 hs; DME 10% fetal calf serum; control 90±2%
Procedure: as §1, §2

[6] = biological target: T1, Ca^++ activated K channel (Homo sapiens, UniProt O15554); assay: Inhibition of the Ca++ activated K channel of human erythrocytes (86Rb influx, K efflux); assay type: cell-based; conditions: for order of inhibitory potency, Ca++ activated 86Rb influx / inhibition of Ca++ activated 86Rb influx by other antimycotics and related compounds: human erythrocytes, FIG. 4
T1 construct: endogenous in cells; host or cells: human erythrocytes (washed red blood cells from heparinized blood)
Procedure: Preparation of Human Red Blood Cells: Blood is collected in heparinized tubes and centrifuged in a Sorvall centrifuge (RB 5B, Du Pont Instruments,Newtown, Conn.) at 5° C. for 10 minutes at 3000 g. Plasma and buffy coat are carefully removed and the cells washed four times with a washing solution containing 150 mM choline chloride (Sigma Co), 1 mM MgC12 (Sigma Co), 10 mM Tris-MOPS (Sigma, Ca), pH 7.4 at 4° C.(CWS). An aliquot of cells is then suspended in an approximately equal volume of CWS, and from this original cell suspension hematocrit (Hct) and hemoglobin (optical density at 540 nm) are determined.
Methods to Test Inhibitors of the Ca^++ Activated K: To test inhibitors of the Ca^++ activated K channel, the channel is activated using the calcium ionophore A23187 (Chalbiochem).
By Atomic Absorption Spectrometry: Washed human erythrocyte are suspended at an hematocrit =1% in CWS containing 0.150 mM CaCl2 (Sigma Co) Aliquots of 1 ml are removed at 0, 3 and 5 minutes, layered on top of 0.3 ml of the oil n-butyl phthalate (Fair Lane, N.J.) placed in an Eppendorf microtube (Fisher) and then centrifuged in a micro centrifuge for 20 seconds. At time 5.30 minutes, ionophore A23187 (1 μM final concentration) is added and samples removed and spin down through phthalate at times 6, 7, 8 and 9 minutes. The supernatant on top of the oil layer is removed and its K+ concentration is measured by atomic absorption spectrometry using a Perking Elmer model 5000 spectrometer (Perkin Elmer Corp., Norwolk, Conn.). The efflux of K+ (mmol/1 cells/h) in the absence and presence of the inhibitor is calculated from the slope of the curves relating the K+ concentration in the supernatants (mmol/1 cells) vs. time (min.).
By radioisotopic measurement of ^86 Rb influx. The incubation medium is the same but contains 2 mM KCl and 1 μCi/ml of the radioactive tracer ^86 Rb. After spinning the samples through the phthalate layer, the tubes are rapidly frozen (-80° C.) by immersion in methanol-dry ice, the tips of the tubes containing the packed red cells cut, and counted in a Packard Gamma Counter.

[7] = tested on: Swiss 3T3; assay: Proliferative response of quiescent 3T3 cells to conditioned media of MAC treated endothelial cells; assay type: cell-based, murine; conditions: 10 μM CLT; FIG. 5
Procedure: as §5

[8] = tested on: testicular and adrenal synthesis of steroid hormones; conditions: cited from earlier work
[9] = tested on: vascular smooth muscle cells; assay: Proliferation of vascular smooth muscle cells (general statement); assay type: cell-based; conditions: for inhibition of proliferation of vascular smooth muscle cells: specific inhibitors of the Ca++ activated potassium channel
[10] = tested on: endothelial cells; assay: Proliferation of endothelial cells (general statement); assay type: cell-based; conditions: for inhibition of proliferation of endothelial cells: specific inhibitors of the Ca++ activated potassium channel
[11] = tested on: cell proliferation; assay: Cell proliferation with inhibitors of other transport systems (general statement); assay type: cell-based; conditions: inhibitors of other transport systems activated by mitogens
[12] = 60 μmol A23187/L cell and 100 μM CaCl2

Compound: Clc1ccccc1C(c1ccccc1)(c1ccccc1)n1ccnc1 [CLT, clotrimazole]
- flask surface covered by cells [1]: less than 10%
- inhibition of PDGF stimulated DNA synthesis ([2]; 10 μM CLT, PDGF, 5 μM, 24 hours): completely inhibited
- inhibition of bFGF stimulated DNA synthesis ([2]; 10 μM CLT, bFGF, 5 μM, 24 hours): completely inhibited
- reversibility of the inhibition of DNA synthesis (toxic, non-specific effect) ([2]; removing CLT and re-stimulating with the growth factor): reversed by removing CLT
- dose response of inhibition of DNA synthesis [3]: Inhibition was dose dependent
- inhibition of DNA synthesis [3]: complete inhibition
- inhibition of PDGF stimulated DNA synthesis [3]: completely inhibited
- inhibition of bFGF stimulated DNA synthesis [3]: completely inhibited
- order of inhibitory potency, bFGF-stimulated DNA synthesis [3]: CLT more potent than ECZ
- reversibility of the inhibition of DNA synthesis (toxic, non-specific effect) [3]: reversed by removing CLT
- inhibition of bFGF-stimulated DNA synthesis ([3]; 10 µM): inhibited DNA synthesis
- inhibition at 1 µM ([3]; Rattus norvegicus, read-out: inhibition of DNA synthesis): 45%
- inhibition of proliferative response to mitogens released from EC by MAC [4]: completely inhibited
- flask surface covered by cells [5]: less than 10%
- inhibition of Ca++ activated 86Rb influx [6, 12]: markedly inhibited
- inhibition of Ca++ activated K efflux [6, 12]: markedly inhibited
- order of inhibitory potency, Ca++ activated 86Rb influx [6]: clotrimazole more than miconazole
- inhibition of proliferative response to mitogens released from EC by MAC [7]: completely inhibited

Compound: Clc1ccc(COC(Cn2ccnc2)c2ccc(Cl)cc2Cl)cc1 (centres unmarked) [ECZ, econazole]
- order of inhibitory potency, bFGF-stimulated DNA synthesis ([3]; 10 μM, FIG. 3): ECZ more potent than MCZ
- inhibition of bFGF-stimulated DNA synthesis ([3]; antimycotics at 10 μM, FIG. 3): inhibited DNA synthesis
- order of inhibitory potency, Ca++ activated 86Rb influx [6]: both of these were more than econazole

Compound: CC(=O)N1CCN(c2ccc(OCC3COC(Cn4ccnc4)(c4ccc(Cl)cc4Cl)O3)cc2)CC1 (centres unmarked) [Ketoconazole, ketoconazole]
- treatment of prostate cancer ([8]; by blocking steroid synthesis): effective in treating some prostate cancers
- plasma testosterone ([8]; hormonal adjuvant for prostate cancer treatment): reduces plasma testosterone to castration levels
- testicular and adrenal synthesis of steroid hormones, including testosterone ([8]; in high doses): appears to inhibit
- usefulness for inhibiting smooth muscle cell proliferation ([9]; ketoconazole, no data given): not useful
- usefulness for inhibiting endothelial cell proliferation ([10]; ketoconazole, no data given): not useful

Compound: Clc1ccc(COC(Cn2ccnc2)c2ccc(Cl)cc2Cl)c(Cl)c1 (centres unmarked) [MCZ, miconazole]
- order of inhibitory potency, bFGF-stimulated DNA synthesis ([3]; 10 μM, FIG. 3): ECZ more potent than MCZ
- inhibition of bFGF-stimulated DNA synthesis ([3]; antimycotics at 10 μM, FIG. 3): inhibited DNA synthesis
- order of inhibitory potency, Ca++ activated 86Rb influx [6]: both of these were more than econazole

Compound: N=C(N)NC(=O)c1nc(Cl)c(N)nc1N [amiloride]
- inhibition of cell proliferation [11]: do not inhibit cell proliferation

Compound: OC(Cn1cncn1)(Cn1cncn1)c1ccc(F)cc1F [fluconazole]
- inhibition of Ca++ activated 86Rb influx by other antimycotics and related compounds [6]: no inhibition

Compound: Cc1ncc([N+](=O)[O-])n1CCO [metronidazole]
- inhibition of Ca++ activated 86Rb influx by other antimycotics and related compounds [6]: only marginal

Compound: Cc1ncc([N+](=O)[O-])n1CC(O)CCl (centres unmarked) [ornidazole]
- inhibition of Ca++ activated 86Rb influx by other antimycotics and related compounds [6]: no inhibition

Compound: C[C@@H]1O[C@@H](O[C@H]2C[C@@H](O)[C@]3(CO)[C@H]4[C@H](O)C[C@]5(C)[C@@H](C6=CC(=O)OC6)CC[C@]5(O)[C@@H]4CC[C@]3(O)C2)[C@H](O)[C@H](O)[C@H]1O [ouabain]
- inhibition of cell proliferation [11]: do not inhibit cell proliferation

Compound: CCS(=O)(=O)CCn1c([N+](=O)[O-])cnc1C [tinidazole]
- inhibition of Ca++ activated 86Rb influx by other antimycotics and related compounds [6]: no inhibition

Compound: Charybdotoxin
- inhibition of proliferation of vascular smooth muscle cells [9]: do not inhibit proliferation
- inhibition of DNA synthesis by other inhibitors of the Ca++ activated K channel ([3]; FIG. 3): failed to inhibit DNA synthesis
- inhibition of proliferation of endothelial cells [10]: do not inhibit proliferation

Compound: kaliotoxin: specific inhibitors of the Ca^++ activated potassium channel
- inhibition of proliferation of vascular smooth muscle cells [9]: do not inhibit proliferation
- inhibition of DNA synthesis by other inhibitors of the Ca++ activated K channel ([3]; FIG. 3): failed to inhibit DNA synthesis
- inhibition of proliferation of endothelial cells [10]: do not inhibit proliferation
